Laboratory results from patent EP0443899A1, “Process for synthetising oligomers of (methylbenzyl)xylene and their use as dielectric” (ELF ATOCHEM S.A., priority 1990, dated 1991).

Legend:
Format in all cases: physicochemical
[1] = Breakdown voltage, alternating current 50 Hz, method 1 (ramp 2000 V/s, asymmetric point/disc electrodes); conditions: 50 Hz AC, point ø 0,6 mm, disc ø 39,6 mm, inter-electrode distance 3,2 mm, mean (extreme values)
Description: (§1) Nous avons comparé différents liquides par la mesure de leur tension de claquage en courant alternatif 50 Hz dans les 2 conditions suivantes (méthodes 1 et 2) : • 1 - rampe 2000 V/s - électrodes dissymétriques. • pointe diamètre 0,6 mm • disque à bords arrondis Rogowski, diamètre 39,6 mm • distance interélectrode = 3,2 mm • 2 - rampe 1000 V/30s - électrodes dissymétriques • pointe diamètre 0,6 mm • disque diamètre 39,6 mm • distance 3,2-10-15-20 mm

[2] = Crystallisation of the dielectric liquids at low temperature and on storage; conditions: for cristallise: general description, products prepared from orthoxylene
Description: Cristallisation du produit XXO1 de l'exemple 1, du produit XX02 de l'exemple 1, et d'un mélange de 85 % en poids de XXO1 et 15 % en poids de XX02 (voir exemple 1) qu'on appelle XX05.
On effectue les mêmes essais que dans l'exemple 3 mais avec des produits XX01 et XX02 préparés comme dans l'exemple 1 sauf qu'on utilise un mélange de 75 % d'orthoxylène et 25 % de paraxylène ou bien de 100 % d'orthoxylène.

[3] = Breakdown voltage, alternating current 50 Hz, method 2 (ramp 1000 V/30 s, asymmetric point/disc electrodes); parameters: unit not given here; conditions: 50 Hz AC, 1000V every 30 s, point ø 0,6, disc ø 39,6, mean (extreme values)
Description: as §1

| Substance | tension de claquage [1] | cristallise [2] | tension de claquage ([3]; inter-electrode distance 3,2 mm) | tension de claquage ([3]; inter-electrode distance 10 mm) | tension de claquage ([3]; inter-electrode distance 15 mm) | tension de claquage ([3]; inter-electrode distance 20 mm) | Cristallisation ([2]; Example 3, products of Example 1 (from orthoxylene)) |
| --- | --- | --- | --- | --- | --- | --- | --- |
| dodécylbenzène ramifié [DDB] | 39,0 (34,9-44,4) (10) | – | – | – | – | – | – |
| di(méthylbenzyl)xylène | – | solide à la température ambiante | – | – | – | – | – |
| (méthylbenzyl)xylène [XX01] | – | -40 °C | 41,2 (37,7-45,3) (5) | 69,5 (65,3-75,8) (5) | 82,4 (74-89) (5) | 93,8 (90,0-105,0) (5) | -40 °C |
